# From PubChem BioAssay AID248 (DTP/NCI, 2004)
# Several values for one entry are separate records, joined by “and”; a condition that tells them apart may be missing. Equal values may be shown once. Inconclusive results and toxic doses are left out.
# Test system: L1210 leukemia ip in BDF1 mice, survival T/C
# Assay: NCI In Vivo Anticancer Drug Screen. Data for tumor model L1210 Leukemia (intraperitoneal) in B6D2F1 (BDF1) mice
# Details: endpoint: mean survival time, higher = longer survival
# How it was run: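 Ratio derived from survival: compound-dosed mice over vehicle-dosed mice, all bearing a transplantable tumor.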
# [1] = dose: 100.0 mg/kg/injection, schedule: Q01DX009 (ip), vehicle: Klucel (hydroxypropylcellulose) (HPC)
# [2] = dose: 200.0 mg/kg/injection, schedule: Q01DX009 (ip), vehicle: Klucel (hydroxypropylcellulose) (HPC)
# [3] = dose: 100.0 mg/kg/injection, schedule: Q04DX003 (ip), vehicle: Klucel (hydroxypropylcellulose) (HPC)
# [4] = dose: 200.0 mg/kg/injection, schedule: Q04DX003 (ip), vehicle: Klucel (hydroxypropylcellulose) (HPC)
# [5] = dose: 400.0 mg/kg/injection, schedule: Q04DX003 (ip), vehicle: Klucel (hydroxypropylcellulose) (HPC)
smiles,measurement,setting,value
NC(=O)NOC(=O)c1ccccc1,T/C,"dose: 50.0 mg/kg/injection, schedule: Q01DX Z (ip), vehicle: other",103 % of control
same,T/C,"dose: 100.0 mg/kg/injection, schedule: Q01DX Z (ip), vehicle: other",103 % of control
same,T/C,"dose: 450.0 mg/kg/injection, schedule: Q01DX Z (ip), vehicle: other",111 % of control
same,T/C,"dose: 600.0 mg/kg/injection, schedule: Q01DX Z (ip), vehicle: other",112 % of control
CCOC(=O)COc1ccc(Cl)cc1,T/C,[1],97 % of control
same,T/C,[2],103 % of control
same,T/C,"dose: 400.0 mg/kg/injection, schedule: Q01DX009 (ip), vehicle: Klucel (hydroxypropylcellulose) (HPC)",92 % of control
COC(=O)c1ccc(N)cc1O,T/C,"dose: 25.0 mg/kg/injection, schedule: Q01DX009 (ip), vehicle: Klucel (hydroxypropylcellulose) (HPC)",101 % of control
same,T/C,"dose: 50.0 mg/kg/injection, schedule: Q01DX009 (ip), vehicle: Klucel (hydroxypropylcellulose) (HPC)",106 % of control
same,T/C,[1],99 % of control and 101 % of control
same,T/C,[3],98 % of control
same,T/C,[2],105 % of control
same,T/C,[4],102 % of control
same,T/C,[5],93 % of control
Clc1ncnc2c1ncn2C1CCCCO1 (configuration not stated),T/C,"dose: 31.0 mg/kg/injection, schedule: Q01DX Z (ip), vehicle: other",101 % of control
same,T/C,"dose: 62.0 mg/kg/injection, schedule: Q01DX Z (ip), vehicle: other",103 % of control
same,T/C,"dose: 100.0 mg/kg/injection, schedule: Q01DX001 (ip), vehicle: saline",91 % of control
same,T/C,"dose: 100.0 mg/kg/injection, schedule: Q01DX009 (ip), vehicle: saline sonified",110 % of control
same,T/C,"dose: 175.0 mg/kg/injection, schedule: Q01DX015 (ip), vehicle: saline",113 % of control
same,T/C,"dose: 200.0 mg/kg/injection, schedule: Q01DX001 (ip), vehicle: saline",98 % of control
same,T/C,"dose: 200.0 mg/kg/injection, schedule: Q01DX009 (ip), vehicle: saline sonified",118 % of control
same,T/C,"dose: 265.0 mg/kg/injection, schedule: Q01DX015 (ip), vehicle: saline",123 % of control
same,T/C,"dose: 400.0 mg/kg/injection, schedule: Q01DX001 (ip), vehicle: saline",102 % of control
same,T/C,"dose: 400.0 mg/kg/injection, schedule: Q01DX009 (ip), vehicle: saline sonified",150 % of control
same,T/C,"dose: 400.0 mg/kg/injection, schedule: Q01DX015 (ip), vehicle: saline",123 % of control
O=C1C=CC(=O)N1c1ccc(Br)cc1 (tested in a mixture with another compound),T/C,"dose: 100.0 mg/kg/injection, schedule: Q04DX003 (ip), vehicle: acetone",96 % of control
same,T/C,"dose: 200.0 mg/kg/injection, schedule: Q04DX003 (ip), vehicle: acetone",89 % of control
same,T/C,"dose: 400.0 mg/kg/injection, schedule: Q04DX003 (ip), vehicle: acetone",91 % of control
COc1nc(N)c([N+](=O)[O-])c(OC)n1,T/C,"dose: 16.0 mg/kg/injection, schedule: Q01DX Z (ip), vehicle: methylcellulose (MC)",97 % of control
same,T/C,"dose: 31.0 mg/kg/injection, schedule: Q01DX Z (ip), vehicle: methylcellulose (MC)",90 % of control
same,T/C,"dose: 62.0 mg/kg/injection, schedule: Q01DX Z (ip), vehicle: methylcellulose (MC)",103 % of control
CCOC(=O)C(C)C(O)c1ccc(OC)cc1 (configuration not stated),T/C,"dose: 100.0 mg/kg/injection, schedule: Q01DX009 (ip), vehicle: saline with Tween-80",93 % of control
same,T/C,"dose: 200.0 mg/kg/injection, schedule: Q01DX009 (ip), vehicle: saline with Tween-80",93 % of control
CC1(C)CC(=O)CC(=C2C(=O)NC(=O)NC2=O)C1,T/C,"dose: 100.0 mg/kg/injection, schedule: Q01DX001 (ip), vehicle: carboxymethylcellulose (CMC)",89 % of control
same,T/C,"dose: 100.0 mg/kg/injection, schedule: Q01DX002 (ip), vehicle: saline with Tween-80",92 % of control
same,T/C,"dose: 100.0 mg/kg/injection, schedule: Q04DX002 (ip), vehicle: saline with Tween-80",103 % of control
same,T/C,"dose: 200.0 mg/kg/injection, schedule: Q01DX001 (ip), vehicle: carboxymethylcellulose (CMC)",92 % of control
same,T/C,"dose: 200.0 mg/kg/injection, schedule: Q01DX002 (ip), vehicle: saline with Tween-80",98 % of control
same,T/C,"dose: 200.0 mg/kg/injection, schedule: Q04DX002 (ip), vehicle: saline with Tween-80",111 % of control
same,T/C,"dose: 400.0 mg/kg/injection, schedule: Q01DX001 (ip), vehicle: carboxymethylcellulose (CMC)",87 % of control
same,T/C,"dose: 400.0 mg/kg/injection, schedule: Q01DX002 (ip), vehicle: saline with Tween-80",95 % of control
same,T/C,"dose: 400.0 mg/kg/injection, schedule: Q04DX002 (ip), vehicle: saline with Tween-80",100 % of control
COc1ccc(C2OCC(c3ccccc3)O2)cc1 (configuration not stated),T/C,"dose: 222.0 mg/kg/injection, schedule: Q01DX Z (ip), vehicle: methylcellulose (MC)",93 % of control
same,T/C,"dose: 500.0 mg/kg/injection, schedule: Q01DX Z (ip), vehicle: methylcellulose (MC)",93 % of control
CC(=O)C(CCC#N)(CCC#N)C(=O)Nc1ccccc1,T/C,[3],97 % of control
same,T/C,[4],98 % of control
same,T/C,[5],95 % of control
